One experiment has as its system short-term memory and reversal learning.
Assay: not given
Particulars: rat; Clapham et al., Brit. J. Pharm. Suppl. 1993; cited from earlier work.
As to `S=C(NC1CCCCC1)N1CCC(c2cnc[nH]2)CC1` [thioperamide], the “short-term memory and reversal learning” value is “can improve short-term memory and reversal learning in the rat”.

In a further experiment the target is T1, H3 receptors (Cavia porcellus, UniProt Q9JI35).
T1 construct: The source of the H3 receptors in this experiment was guinea pig brain; from tissue; host or cells: guinea pig brain membranes
T1 sequence (Q9JI35 whole entry): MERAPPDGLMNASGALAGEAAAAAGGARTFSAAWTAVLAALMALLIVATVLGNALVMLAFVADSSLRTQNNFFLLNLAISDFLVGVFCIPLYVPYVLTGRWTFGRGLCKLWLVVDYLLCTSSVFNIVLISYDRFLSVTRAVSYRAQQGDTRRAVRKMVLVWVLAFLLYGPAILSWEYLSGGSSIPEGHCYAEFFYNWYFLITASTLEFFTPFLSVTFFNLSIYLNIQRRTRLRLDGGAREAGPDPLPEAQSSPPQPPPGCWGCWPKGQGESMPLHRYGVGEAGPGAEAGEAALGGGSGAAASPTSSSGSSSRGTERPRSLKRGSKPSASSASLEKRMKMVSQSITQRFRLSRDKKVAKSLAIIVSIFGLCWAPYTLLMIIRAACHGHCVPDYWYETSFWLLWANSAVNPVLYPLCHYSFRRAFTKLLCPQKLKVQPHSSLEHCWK
The experiment can be described thus: H3-Receptor Binding Assay (guinea pig brain membranes, [3H]R-a-methylhistamine or [3H]Na-methylhistamine).
Conditions: not given
On the procedure:
The source of the H3 receptors in this experiment was guinea pig brain. The animals weighed 400-600 g. The brain tissue was homogenized using a Polytron in a solution of 50 mM Tris, pH 7.5. The final concentration of tissue in the homogenization buffer was 10% w/v. The homogenates were centrifuged at 1,000×g for 10 min. in order to remove clumps of tissue and debris. The resulting supernatants were then centrifuged at 50,000×g for 20 min. in order to sediment the membranes, which were next washed three times in homogenization buffer (50,000×g for 20 min. each). The membranes were frozen and stored at -70° C. until needed.
All compounds to be tested were dissolved in DMSO and then diluted into the binding buffer (50 mM Tris, pH 7.5) such that the final concentration was 2 μg/ml with 0.1% DMSO. Membranes were then added (400 μg of protein) to the reaction tubes. The reaction was started by the addition of 3 nM [^3 H]R-a-methylhistamine (8.8 Ci/mmol) or 3 nM [^3 H]N^a -methylhistamine (80 Ci/mmol) and continued under incubation at 30° C. for 30 min. Bound ligand was separated from unbound ligand by filtration, and the amount of radioactive ligand bound to the membranes was quantitated by liquid scintillation spectrometry. All incubations were performed in duplicate and the standard error was always less than 10%. […] The results are given in the table below for the HCl salt of the indicated compound.
By Ki is commonly meant the equilibrium dissociation constant of an inhibitor or competing ligand from its target. Take `O=C(NCc1ccc(Cc2c[nH]cn2)cc1)Nc1cc(Cl)cc(Cl)c1` [Compound 8]: the inhibition constant (Ki) stood at 12 nM.
As to `O=C(Nc1cccc(C(F)(F)F)c1)OCc1ccc(Cc2c[nH]cn2)cc1` [Compound 12], the affinity corresponds to a Ki of 21 nM.
`Cc1cc(C)cc(NC(=O)OCc2ccc(Cc3c[nH]cn3)cc2)c1` [Compound 14] registered an inhibition constant (Ki) of 17 nM.
For `N#Cc1cccc(NC(=O)OCc2ccc(Cc3c[nH]cn3)cc2)c1` [Compound 15], the inhibition constant Ki was 7 nM.
`COc1cccc(NC(=O)OCc2ccc(Cc3c[nH]cn3)cc2)c1` [Compound 17] displayed an inhibition constant (Ki) of 13 nM.
Same read-out and setting: as for `O=C(Nc1cccc(F)c1)OCc1ccc(Cc2c[nH]cn2)cc1` [Compound 19], the figure is 5 nM; as for `O=C(CCc1ccc(Cc2c[nH]cn2)cc1)Nc1ccccc1` [Compound 21], 2 nM; as for `O=C(CCc1ccc(Cc2c[nH]cn2)cc1)Nc1cccc(Cl)c1` [Compound 22], 1 nM.
Same read-out and setting: then `O=C(CCc1ccc(Cc2c[nH]cn2)cc1)NCCc1ccc(Cl)cc1` [Compound 24], with 5 nM.

The same experiment, now with this note: HCl salt of the indicated compound; guinea pig brain membranes; 3 nM [3H]R-a-methylhistamine or 3 nM [3H]Na-methylhistamine, pH 7.5, 30° C., 30 min; read-out: Ki.
As to `COc1cccc(NC(=O)NCc2ccc(Cc3c[nH]cn3)cc2)c1` [Compound 1], the inhibitory constant (Ki) came out at 18 nM.
Regarding `O=C(NCc1ccc(Cc2c[nH]cn2)cc1)Nc1cc(C(F)(F)F)cc(C(F)(F)F)c1` [Compound 2], the inhibition constant (Ki) came to 22 nM.
With `Cc1cc(C)cc(NC(=O)NCc2ccc(Cc3c[nH]cn3)cc2)c1` [Compound 3], the Ki stood at 9 nM.
Regarding `O=C(NCc1ccc(Cc2c[nH]cn2)cc1)Nc1ccccc1Cl` [Compound 4], the Ki is 32 nM.
Turning to `O=C(NCc1ccc(Cc2c[nH]cn2)cc1)Nc1cccc(C(F)(F)F)c1` [Compound 6], the Ki came out at 16 nM.
Still for that read-out and setting: as for `N#Cc1cccc(NC(=O)NCc2ccc(Cc3c[nH]cn3)cc2)c1` [Compound 7], the figure is 5 nM; as for `O=C(NCc1ccc(Cc2c[nH]cn2)cc1)Nc1cc(Cl)cc(Cl)c1` [Compound 8], 4 nM; as for `O=C(NCc1ccc(Cc2c[nH]cn2)cc1)Nc1cccc(Cl)c1` [Compound 9], 6 nM.
For the compound `O=C(NCc1ccc(Cc2c[nH]cn2)cc1)Nc1ccc(Cl)c(Cl)c1` [Compound 10], the inhibitory constant (Ki) worked out at 7 nM.
With `O=C(Nc1ccc(Cl)c(Cl)c1)OCc1ccc(Cc2c[nH]cn2)cc1` [Compound 13], the inhibition constant (Ki) came to 18 nM.
Regarding `O=C(Nc1cc(C(F)(F)F)cc(C(F)(F)F)c1)OCc1ccc(Cc2c[nH]cn2)cc1` [Compound 18], the Ki was found to be 23 nM.
For `O=C(Nc1cc(Cl)cc(Cl)c1)OCc1ccc(Cc2c[nH]cn2)cc1` [Compound 20], the Ki is 5 nM.

The subject of the next experiment is electrically induced convulsions.
Assay: not given
As to conditions: mice; Yokoyama et al., Eur. J. Pharmacol. 1993; cited from earlier work.
In the case of `S=C(NC1CCCCC1)N1CCC(c2cnc[nH]2)CC1` [thioperamide], the “duration of each phase of convulsion” value is “decreased the duration of each phase of convulsion” and the electroconvulsive threshold result is given as “raised the electroconvulsive threshold”.

The values above are taken from US5990147A, “H3 receptor ligands of the phenyl-alkyl-imidazoles type” (Schering Corporation, priority 1998, dated 1999).
